Patent US9707200B2, “Metabolism-improving agent comprising rare fatty acid” (KYOTO UNIVERSITY, priority 2012, dated 2017)

Assays:
PPARα = molecular target: T1, PPARα (Homo sapiens, UniProt Q07869); assay: PPARα ligand activity, GAL4-PPARα reporter luciferase assay in CV-1 cells; type: cell-based; conditions: 24 hr incubation, KetoA and HYA each at 30 μM, other fatty acids by a similar method
T1 construct: expressed in transfected cells; host or cells: CV-1 (African green monkey kidney)
T1 sequence (Q07869 239-466 limits assumed): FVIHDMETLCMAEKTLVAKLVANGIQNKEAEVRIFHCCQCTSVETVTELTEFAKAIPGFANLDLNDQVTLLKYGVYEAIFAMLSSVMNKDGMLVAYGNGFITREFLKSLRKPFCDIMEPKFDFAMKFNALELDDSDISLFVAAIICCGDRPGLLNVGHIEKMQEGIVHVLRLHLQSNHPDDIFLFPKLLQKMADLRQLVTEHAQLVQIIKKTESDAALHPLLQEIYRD
Procedure: (§1) To evaluate the function of oxo fatty acid and the like, PPARα, γ-activating action was measured first. The measurement was performed in reference to Nobuyuki Takahashi et al., FEES Letters 514 (2002) p. 315-322, “Dual action of isoprenols from herbal medicines on both PPARgamma and PPARalpha in 3T3-L1 adipocytes and HepG2 hepatocytes.”, the section of Materials and Methods “Reporter plasmids and luciferase assays”. To be specific, a plasmid containing DNA encoding a fused protein of PPARα, γ ligand binding region and GAL4 DNA binding region (pM-hPPARα or pM-hPPARγ), a reporter plasmid containing GAL4 binding DNA sequence linked to luciferase (p4xUASg-tk-luc), and internal control (pRL-CMV) to standardize transfection efficiency were introduced into CV-1 cell derived from the kidney of African green monkey. The ligand described below was added to the cells and, after incubation for 24 hr, luciferase activity was measured. As a ligand, KetoA and HYA were each added at 30 μM.
(§2) The concentration of the sample was adjusted with ethanol. Ethanol was used as a negative control, […], and GW7647 (10 nM) and Troglitazone (5 μM) were used as […].

LXR = molecular target: T2, LXR (Homo sapiens, UniProt Q13133); assay: Antagonizing action on LXR by luciferase assay; type: cell-based; conditions: overall finding from SREBP-1c, SREBP-1, SCD-1, FAS, ACC1, 2, triacylglycerol and LXR luciferase measurements in HepG2 cells
T2 construct: expressed in transfected cells; host or cells: HepG2 (human liver cancer-derived)
T2 sequence (Q13133 1-447): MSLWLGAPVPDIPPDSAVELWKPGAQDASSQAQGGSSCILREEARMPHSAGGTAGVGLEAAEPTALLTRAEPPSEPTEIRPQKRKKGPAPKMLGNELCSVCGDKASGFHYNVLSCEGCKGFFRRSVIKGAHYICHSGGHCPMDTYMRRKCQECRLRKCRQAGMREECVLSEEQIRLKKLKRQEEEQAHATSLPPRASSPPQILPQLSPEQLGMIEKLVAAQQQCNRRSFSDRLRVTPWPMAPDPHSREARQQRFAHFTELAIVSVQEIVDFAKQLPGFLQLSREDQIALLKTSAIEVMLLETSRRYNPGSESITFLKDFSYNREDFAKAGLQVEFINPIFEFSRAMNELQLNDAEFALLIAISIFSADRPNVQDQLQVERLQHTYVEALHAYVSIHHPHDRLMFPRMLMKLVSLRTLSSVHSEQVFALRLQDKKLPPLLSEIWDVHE
Procedure: In addition, the protein expression level of immature and mature SREBP-1c was measured. Cells treated as mentioned above were dispersed in buffer A (250 mM sucrose, 10 mM HEPES-KOH, 10 mM KCl, 1.5 mM MgCl2, 1 mM EDTA-Na, 1 mM EGTA-Na, pH 7.6) containing a protease inhibitor, passed 20 times through a 23 gauge injection needle, and centrifuged (1,000×g, 4° C., 5 min) to separate into supernatant 1 and precipitate 1. The precipitate 1 was re-dissolved in buffer B (20 mM HEPES-KOH, 0.42 M NaCl, 2.5% glycerol, 1.5 mM MgCl2, 1 mM EDTA-Na, 1 mM EGTA-Na, pH 7.6), and centrifuged (10^5×g, 4° C., 15 min). The obtained supernatant 2 was used as a nuclear fraction (including mature form). The supernatant 1 was further centrifuged (10^5×g, 4° C., 15 min), and the obtained precipitate 2 was dissolved in cell lysate (10 mM Tris-HCl, 100 mM NaCl, 1% SDS, 1 mM EDTA-Na, 1 mM EGTA-Na) and used as a membrane fraction (including immature form). Using these as samples, measurement was performed by Western blot method using anti-SREBP-1 polyclonal antibody (Santa Cruz). Using Dual luciferase system (Promega), antagonizing action on LXR was evaluated by luciferase assay. p3xIR1-tk-Luc, pCMX-hLXRa, pRL-CMX were introduced into HepG2 cell. After culture in a 0.1% BSA-containing serum-free medium containing various fatty acids and T0901317 for 24 hr, the luciferase activity was measured.

PPARγ = molecular target: T3, PPARγ (Homo sapiens, UniProt P37231); assay: PPARγ ligand activity, GAL4-PPARγ reporter luciferase assay in CV-1 cells; type: cell-based; conditions: 24 hr incubation, KetoA and HYA each at 30 μM, other fatty acids by a similar method
T3 construct: expressed in transfected cells; host or cells: CV-1 (African green monkey kidney)
T3 sequence (P37231 238-503 limits assumed): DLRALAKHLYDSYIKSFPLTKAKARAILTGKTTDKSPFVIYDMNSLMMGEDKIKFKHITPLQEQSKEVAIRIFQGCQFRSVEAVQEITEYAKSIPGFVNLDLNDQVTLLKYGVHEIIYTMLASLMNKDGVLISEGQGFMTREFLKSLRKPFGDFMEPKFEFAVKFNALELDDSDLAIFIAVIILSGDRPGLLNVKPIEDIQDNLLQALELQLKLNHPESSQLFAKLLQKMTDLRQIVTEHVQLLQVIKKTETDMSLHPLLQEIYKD
Procedure: as §1, §2

HepG2 cells [1] = assay: Intracellular triacylglycerol accumulation by LXR agonist; type: cell-based, human; conditions: 10 nM T0901317 alone, 24 hr
Procedure: HepG2 cells (2.0×10^5 cells/mL) were cultured in DMEM medium containing 10% FES for 24 hr, and the medium was exchanged with 0.1% BSA-containing DMEM medium containing 10 nM LXR agonist T0901317 (Cayman Chemicals) and 60 μM various fatty acid. After culture for 24 hr, the cells were recovered, and total RNA was extracted using Sepasol reagent (Nacalai Tesque). After DNase treatment, reverse transcription was performed using SuperScriptII (Invitrogen) to give a cDNA solution. Using SYBR Green Mix (Bio-Rad, Richmond, Calif.) and gene-specific primer (Table 1), real-time PCR was performed as follows.
1. Reaction at 96° C., 15 min, 2. reaction at 96° C., 15 sec, 3. reaction at 60° C. for 30 sec, 4. measurement of fluorescence, 5. 2-4 were repeated 40 times, 6. the melting curve was measured from 65° C. to 95° C. at 0.4° C. intervals. As the internal standard, 18S rRNA was used. The genes involved in the fatty acid synthesis as measured were Sterol regulatory element binding protein-1c (SREBP-1c), Stearoyl coenzyme A desaturase-1 (SCD-1), Fatty acid synthase (FAS), and Acetyl CoA carboxylase-1 and -2 (ACC-1, 2). As for the amount of accumulated intracellular TG, the lipid was extracted with chloroform-methanol, and quantified by triglyceride-′E Test Wako (Wako Pure Chemical Industries, Ltd.).

HepG2 cells [2] = assay: Effect on LXR agonist-induced expression of fatty acid synthesis genes, real-time PCR; type: cell-based, human; conditions: 10 nM T0901317 alone, 24 hr

SMILES: CCCCCCCCC(O)CCCCCCCCC(=O)O (stereo not shown) [HYB, 10-hydroxyoctadecanoic acid]
- PPARα agonist activity (relative luciferase activity) (PPARα): PPARα agonist activity
- lipid synthesis suppressive action by the antagonizing action on LXR (LXR): lipid synthesis suppressive action

SMILES: CCCCCCCCC(=O)CCCCCCCCC(=O)O [KetoB, 10-oxooctadecanoic acid]
- PPARα agonist activity (relative luciferase activity) (PPARα): PPARα agonist activity

SMILES: CCCCCC/C=C/C(=O)CCCCCCCCC(=O)O [KetoC, 10-oxo-trans-11-octadecenoic acid]
- PPARα agonist activity (relative luciferase activity) (PPARα): PPARα and γ agonist activity
- PPARγ agonist activity (relative luciferase activity) (PPARγ): PPARα and γ agonist activity

SMILES: CCCCCC[C@@H](O)C/C=C\CCCCCCCC(=O)O [RA, ricinoleic acid]
- PPARα agonist activity (relative luciferase activity) (PPARα): PPARα agonist activity
- lipid synthesis suppressive action by the antagonizing action on LXR (LXR): lipid synthesis suppressive action

SMILES: O=S(=O)(c1ccccc1)N(CC(F)(F)F)c1ccc(C(O)(C(F)(F)F)C(F)(F)F)cc1 [T0901317, reference compound]
- intracellular triacylglycerol level (HepG2 cells [1]): increased
- expression of SREBP-1c mRNA (HepG2 cells [2]): about 7 fold

SMILES: CCCCCCC(O)CC(O)CCCCCCCCC(=O)O (stereo not shown) [rHYA, 10,12-dihydroxyoctadecanoic acid]
- PPARα agonist activity (relative luciferase activity) (PPARα): PPARα agonist activity

SMILES: CCCCCCC(O)CCCCCCCCCCC(=O)O (stereo not shown) [rHYB, 12-hydroxyoctadecanoic acid]
- PPARα agonist activity (relative luciferase activity) (PPARα): PPARα agonist activity
- lipid synthesis suppressive action by the antagonizing action on LXR (LXR): lipid synthesis suppressive action

SMILES: CCCCCCC(=O)CCCCCCCCCCC(=O)O [rKetoB, 12-oxooctadecanoic acid]
- PPARα agonist activity (relative luciferase activity) (PPARα): PPARα agonist activity
- lipid synthesis suppressive action by the antagonizing action on LXR (LXR): lipid synthesis suppressive action

SMILES: CC/C=C\C/C=C\CC(O)CCCCCCCCC(=O)O (stereo not drawn) [αHYA, 10-hydroxy-cis-12,cis-15-octadecadienoic acid]
- PPARα agonist activity (relative luciferase activity) (PPARα): PPARα agonist activity

SMILES: CC/C=C\C/C=C\CC(=O)CCCCCCCCC(=O)O [αKetoA, 10-oxo-cis-12,cis-15-octadecadienoic acid]
- PPARγ agonist activity (relative luciferase activity) (PPARγ): PPARγ agonist activity
- lipid synthesis suppressive action by the antagonizing action on LXR (LXR): lipid synthesis suppressive action

SMILES: CC/C=C\CC/C=C/C(=O)CCCCCCCCC(=O)O [αKetoC, 10-oxo-trans-11,cis-15-octadecadienoic acid]
- PPARα agonist activity (relative luciferase activity) (PPARα): PPARα and γ agonist activity
- PPARγ agonist activity (relative luciferase activity) (PPARγ): PPARα and γ agonist activity

SMILES: CCCCC/C=C\CC(O)CC/C=C\CCCCC(=O)O (stereo not drawn) [γHYA, 10-hydroxy-cis-6,cis-12-octadecadienoic acid]
- PPARα agonist activity (relative luciferase activity) (PPARα): PPARα agonist activity
- lipid synthesis suppressive action by the antagonizing action on LXR (LXR): lipid synthesis suppressive action

SMILES: CCCCC/C=C\CC(=O)CC/C=C\CCCCC(=O)O [γKetoA, 10-oxo-cis-6,cis-12-octadecadienoic acid]
- PPARγ agonist activity (relative luciferase activity) (PPARγ): PPARγ agonist activity
- lipid synthesis suppressive action by the antagonizing action on LXR (LXR): lipid synthesis suppressive action

SMILES: CCCCCC/C=C/C(=O)CC/C=C\CCCCC(=O)O [γKetoC, 10-oxo-cis-6,trans-11-octadecadienoic acid]
- PPARα agonist activity (relative luciferase activity) (PPARα): PPARα and γ agonist activity
- PPARγ agonist activity (relative luciferase activity) (PPARγ): PPARα and γ agonist activity
